Earlier results on 13 molecules are cited in Sander's compilation of Henry's law constants (doi:10.1021/je900477x).

Values joined by “and” are separate entries in the source; they are usually repeats but may differ in a detail not shown here. Equal values may be shown once.

The nature of this data set: Henry solubility constant Hcp at 298.15 K (mol/(m3 Pa)). The settings on record: reference: Ma et al. (2010b); cited value.
For `c1ccc2c(c1)ccc1c3ccccc3ccc21` [chrysene], the “Henry solubility constant Hcp” value was 2.3 and 2.7.
On to `c1ccc2c(c1)ccc1ccccc12` [phenanthrene], for which the “Henry solubility constant Hcp” value was 0.23.
Consider `c1ccc2c(c1)-c1cccc3cccc-2c13` [benzo[jk]fluorene], for which the “Henry solubility constant Hcp” value is 0.69 and 0.75.
For the molecule `c1ccc2c(c1)-c1ccc3ccc4cccc5cc-2c1c3c45` [indeno[1,2,3-cd]pyrene], the “Henry solubility constant Hcp” value was 29 and 20.
Regarding `c1cc2ccc3ccc4ccc5cccc6c(c1)c2c3c4c56` [benzo[ghi]perylene], the “Henry solubility constant Hcp” value was 30 and 24.
With `c1ccc2cc3ccccc3cc2c1` [anthracene], the “Henry solubility constant Hcp” value is 0.2.
`c1ccc2ccccc2c1` [naphthalene]: the “Henry solubility constant Hcp” value is 0.021 and 0.022.
Turning to `c1ccc2cc3c(cc2c1)-c1cccc2cccc-3c12` [benzo[k]fluoranthene], the “Henry solubility constant Hcp” value was 17 and 18.
Regarding `c1ccc2c(c1)-c1cccc3c1c-2cc1ccccc13` [benzo[b]fluoranthene], the “Henry solubility constant Hcp” value is 15.
Consider `C1=Cc2cccc3cccc1c23` [acenaphthylene], for which the “Henry solubility constant Hcp” value was 0.082 and 0.1.
For the molecule `c1cc2c3c(cccc3c1)CC2` [acenaphthene], the “Henry solubility constant Hcp” value was 0.072 and 0.07.
As for `c1ccc2c(c1)cc1ccc3cccc4ccc2c1c34` [benzo[a]pyrene], the “Henry solubility constant Hcp” value is 20 and 13.
In the case of `c1ccc2c(c1)Cc1ccccc1-2` [2,3-benzindene], the “Henry solubility constant Hcp” value was 0.11.
